Among the data in patent publication US10875832B2, “Substituted pyrimidines for treating bacterial infections” (FORGE THERAPEUTICS, INC., priority 2015, dated 2020) are MIC values, retold here.

What all share (assay type): cell-based
The subject of assay [1] is E. coli ATCC 25922. As to the kind of experiment: MIC by broth microdilution, E. coli ATCC 25922, no FBS. To be noted: Escherichia coli, ATCC25922, 35° C., 18-24 h. How it is done:
(§1) Minimal inhibitory concentrations (MIC) were determined by the broth microdilution method in accordance with the Clinical and Laboratory Standards Institute (CLSI) guidelines. In brief, organism suspensions were adjusted to a 0.5 McFarland standard to yield a final inoculum between 3×10^5 and 7×10^5 colony-forming units (CFU)/mL. Drug dilutions and inocula were made in sterile, cation adjusted Mueller-Hinton Broth (Beckton Dickinson). An inoculum volume of 100 μL was added to wells containing 100 μL of broth with 2-fold serial dilutions of drug. All inoculated microdilution trays were incubated in ambient air at 35° C. for 18-24 h. […] Performance of the assay was monitored by the use of laboratory quality-control strains and levofloxacin, a compound with a defined MIC spectrum, in accordance with CLSI guidelines.

Assay [2] concerns E. coli BW25113. Nature of the assay: MIC by broth microdilution, E. coli BW25113, no FBS. To be noted: Escherichia coli, 35° C., 18-24 h. How it is done: as §1
Assay [3] concerns E. coli imp mutant. Nature of the assay: MIC by broth microdilution, E. coli imp mutant. To be noted: Escherichia coli, read-out: MIC E. coli imp mutant. How it is done: as §1
Assay [4] relates to E. coli delta to IC mutant. Nature of the assay: MIC by broth microdilution, E. coli delta tolC mutant. To be noted: Escherichia coli, read-out: MIC E. coli delta to IC mutant. As to the method:
as §1

In assay [5] the test system is S. aureus ATCC 29213. As to the kind of experiment: MIC by broth microdilution, S. aureus ATCC 29213. To be noted: Staphylococcus aureus, ATCC29213; 35° C., 18-24 h. As to the method:
as §1
A general note: In broth dilution the organism is exposed to a series of concentrations in liquid medium.

The test system of assay [6] is P. aeruginosa 209. As to the kind of experiment: MIC by broth microdilution, P. aeruginosa 209. To be noted: Pseudomonas aeruginosa, 35° C., 18-24 h. As to the method:
as §1

Assay [7] concerns P. aeruginosa 210 delta mexAB-OprM. As to the kind of experiment: MIC by broth microdilution, P. aeruginosa 210 delta mexAB-OprM. To be noted: Pseudomonas aeruginosa, read-out: MIC P. aeruginosa 210 delta mexAB-OprM. How it is done: as §1

SMILES strings stand for the structures. In brackets after ≈: the same amount, converted by molar mass.

With `O=C(c1ccc(C#CC#Cc2ccc(NCc3nc[nH]c(=O)c3O)cc2)cc1)N1CCC[C@H]1CO` [Compound 99], the MIC in assay [1] was above 32 µg/mL; in assay [2] it was 1 to 8 µg/mL (≈ 2.13 to 17.1 µM); in assay [3] it was below 1 µg/mL; in assay [4] it was below 1 µg/mL; in assay [5] it was above 32 µg/mL; in assay [6] it was above 32 µg/mL. In assay [7], the MIC was above 32 µg/mL.
As to `CC(O)C(Cc1ccc(C#Cc2ccc(CN3CCOCC3)cc2)cc1)n1cncc(O)c1=O` (stereo not drawn) [Compound 108], the MIC is above 32 µg/mL in assay [1], 8 to 32 µg/mL (≈ 17.4 to 69.6 µM) in assay [3] and 8 to 32 µg/mL (≈ 17.4 to 69.6 µM) in assay [4].
Take `Cn1cc(O)c(=O)cc1CNC(=O)c1ccc(C#Cc2ccccc2)cc1` [Compound 94]: the MIC in assay [1], in assay [2], in assay [3], in assay [4], in assay [5] and in assay [6] was above 32 µg/mL throughout. Besides, the MIC in assay [7] was above 32 µg/mL.
`O=C(O)c1ccc(C#CC#Cc2ccc(NCc3nc[nH]c(=O)c3O)cc2)cc1` [Compound 87]: the MIC in assay [1] is 1 to 8 µg/mL (≈ 2.59 to 20.8 µM); in assay [2], 1 to 8 µg/mL (≈ 2.59 to 20.8 µM); in assay [3], 1 to 8 µg/mL (≈ 2.59 to 20.8 µM); in assay [4] it was below 1 µg/mL; in assay [5], above 32 µg/mL; in assay [6], above 32 µg/mL. The MIC in assay [7] is above 32 µg/mL.
Turning to `Cc1nc(CO)c(O)c(=O)n1CC(O)c1ccc(-c2ccccc2)cc1` (stereo not drawn) [Compound 92], the MIC in assay [1], in assay [5] and in assay [6] was above 32 µg/mL each time.
As to `CC(C)(O)C(Cc1ccc(C#Cc2ccc(CN3CCOCC3)cc2)cc1)c1nc[nH]c(=O)c1O` (stereo not drawn) [Compound 112], the MIC in assay [1] is 8 to 32 µg/mL (≈ 16.9 to 67.6 µM); in assay [3], 1 to 8 µg/mL (≈ 2.11 to 16.9 µM); in assay [4], below 1 µg/mL.
The like results for `O=c1c(O)cccn1C(CO)Cc1ccc(C#Cc2ccc(CN3CCOCC3)cc2)cc1` (stereo not drawn) [Compound 114, 3-hydroxy-1-(1-hydroxy-3-(4-((4-(morpholinomethyl)phenyl)ethynyl)phenyl)propan-2-yl)pyridin-2(1H)-one] were, in that order, 8 to 32 µg/mL (≈ 18 to 72 µM), 1 to 8 µg/mL (≈ 2.25 to 18 µM) and 1 to 8 µg/mL (≈ 2.25 to 18 µM).
Consider `CN(C)C1CCN(C(=O)c2ccc(C#CC#Cc3ccc(NCc4nc[nH]c(=O)c4O)cc3)cc2)C1` (stereo not drawn) [Compound 100], for which the MIC in assay [1] was 1 to 8 µg/mL (≈ 2.08 to 16.6 µM); in assay [2], 1 to 8 µg/mL (≈ 2.08 to 16.6 µM); in assay [3], below 1 µg/mL; in assay [4] it was below 1 µg/mL; in assay [5] it was above 32 µg/mL; in assay [6], above 32 µg/mL. Further, in assay [7], the MIC was above 32 µg/mL.
For the compound `CCN(CC)CCCNC(=O)c1ccc(C#CC#Cc2ccc(NCc3nc[nH]c(=O)c3O)cc2)cc1` [Compound 76], the MIC was 8 to 32 µg/mL (≈ 16.1 to 64.3 µM) in assay [1]; 1 to 8 µg/mL (≈ 2.01 to 16.1 µM) in assay [2]; 1 to 8 µg/mL (≈ 2.01 to 16.1 µM) in assay [3]; below 1 µg/mL in assay [4]; above 32 µg/mL in assay [5]; above 32 µg/mL in assay [6]. Also, the MIC in assay [7] was above 32 µg/mL.
On to `CCOC(=O)c1nc(C)n(CC(O)c2ccc(C#Cc3ccccc3)cc2)c(=O)c1O` (stereo not drawn) [Compound 89], for which the MIC in assay [1] is above 32 µg/mL; in assay [2], above 32 µg/mL; in assay [3] it was 8 to 32 µg/mL (≈ 19.1 to 76.5 µM); in assay [4], above 32 µg/mL; in assay [5], 8 to 32 µg/mL (≈ 19.1 to 76.5 µM); in assay [6], above 32 µg/mL. Also, the MIC in assay [7] is above 32 µg/mL.
In the case of `O=c1c(O)cncn1CCc1ccc(C#Cc2ccc(CN3CCOCC3)cc2)cc1` [Compound 73, 5-hydroxy-3-(4-((4-(morpholinomethyl)phenyl)ethynyl)phenethyl)-pyrimidin-4(3H)-one], the MIC was 1 to 8 µg/mL (≈ 2.41 to 19.3 µM) in assay [2], above 32 µg/mL in assay [5], above 32 µg/mL in assay [6] and above 32 µg/mL in assay [7].
Consider `CNC(=O)c1ccc(C#CC#Cc2ccc(NCc3nc[nH]c(=O)c3O)cc2)cc1` [Compound 72, 4-((4-(((5-hydroxy-6-oxo-1,6-dihydropyrimidin-4-yl)methyl)amino)phenyl)buta-1,3-diyn-1-yl)-N-methylbenzamide], for which the MIC is below 1 µg/mL in assay [1]; below 1 µg/mL in assay [2]; below 1 µg/mL in assay [3]; below 1 µg/mL in assay [4]; above 32 µg/mL in assay [5]; above 32 µg/mL in assay [6]. Besides, the MIC in assay [7] is above 32 µg/mL.
With `Cc1nc(C(=O)O)c(O)c(=O)n1CC(O)c1ccc(-c2ccccc2)cc1` (stereo not drawn) [Compound 83, 1-(2-([1,1′-biphenyl]-4-yl)-2-hydroxyethyl)-5-hydroxy-2-methyl-6-oxo-1,6-dihydro pyrimidine-4-carboxylic acid], the MIC in assay [1] was above 32 µg/mL; in assay [2], above 32 µg/mL; in assay [3], 1 to 8 µg/mL (≈ 2.73 to 21.8 µM); in assay [4], 8 to 32 µg/mL (≈ 21.8 to 87.3 µM); in assay [5] it was above 32 µg/mL; in assay [6], above 32 µg/mL. In assay [7], the MIC was above 32 µg/mL.
Take `O=C(NCCN1CCCC1)c1ccc(C#CC#Cc2ccc(NCc3nc[nH]c(=O)c3O)cc2)cc1` [Compound 75]: the MIC in assay [1] was 8 to 32 µg/mL (≈ 16.6 to 66.5 µM); in assay [2] it was 1 to 8 µg/mL (≈ 2.08 to 16.6 µM); in assay [3], 1 to 8 µg/mL (≈ 2.08 to 16.6 µM); in assay [4] it was below 1 µg/mL; in assay [5], above 32 µg/mL; in assay [6] it was above 32 µg/mL. In addition, in assay [7], the MIC was above 32 µg/mL.
Take `O=c1[nH]cnc(CCc2ccc(C#Cc3ccc(CN4CCOCC4)cc3)cc2)c1O` [Compound 104, 5-hydroxy-6-(4-((4-(morpholinomethyl)phenyl)ethynyl)phenethyl)pyrimidin-4(3H)-one]: the figures for the MIC in assay [1], in assay [3] and in assay [4] were 8 to 32 µg/mL (≈ 19.3 to 77 µM), 8 to 32 µg/mL (≈ 19.3 to 77 µM) and 1 to 8 µg/mL (≈ 2.41 to 19.3 µM), respectively.
`O=c1[nH]cnc(CS(=O)(=O)c2ccc(C#Cc3ccc(CN4CCOCC4)cc3)cc2)c1O` [Compound 102]: the MIC is 8 to 32 µg/mL (≈ 17.2 to 68.7 µM) in assay [1]; 8 to 32 µg/mL (≈ 17.2 to 68.7 µM) in assay [2]; 8 to 32 µg/mL (≈ 17.2 to 68.7 µM) in assay [3]; 8 to 32 µg/mL (≈ 17.2 to 68.7 µM) in assay [4]; above 32 µg/mL in assay [5]; above 32 µg/mL in assay [6]. Further, in assay [7], the MIC is 8 to 32 µg/mL (≈ 17.2 to 68.7 µM).
Take `CNC(=O)c1nc(C)n(CC(O)c2ccc(-c3ccccc3)cc2)c(=O)c1O` (stereo not drawn) [Compound 91, 1-(2-([1,1′-biphenyl]-4-yl)-2-hydroxyethyl)-5-hydroxy-N,2-dimethyl-6-oxo-1,6-dihydropyrimidine-4-carboxamide]: the MIC in assay [1] is above 32 µg/mL; in assay [2], above 32 µg/mL; in assay [3], above 32 µg/mL; in assay [4], 8 to 32 µg/mL (≈ 21.1 to 84.3 µM); in assay [5], 8 to 32 µg/mL (≈ 21.1 to 84.3 µM); in assay [6] it was above 32 µg/mL. The MIC in assay [7] is above 32 µg/mL.
Take `CS(=O)(=O)Cc1nc(COc2ccc(C#CC#Cc3ccccc3)cc2)[nH]c(=O)c1O` [Compound 70, 5-hydroxy-6-((methylsulfonyl)methyl)-2-((4-(phenylbuta-1,3-diyn-1-yl)phenoxy)methyl)pyrimidin-4(3H)-one]: the MIC in assay [1] is above 32 µg/mL; in assay [2] it was above 32 µg/mL; in assay [3], 1 to 8 µg/mL (≈ 2.3 to 18.4 µM); in assay [4] it was 8 to 32 µg/mL (≈ 18.4 to 73.7 µM); in assay [5] it was 8 to 32 µg/mL (≈ 18.4 to 73.7 µM); in assay [6] it was above 32 µg/mL. Also, in assay [7], the MIC was above 32 µg/mL.
Consider `Cc1nc(C(=O)O)c(O)c(=O)n1C/C(=N/O)c1ccc(-c2ccccc2)cc1` [Compound 95, (E)-1-(2-([1,1′-biphenyl]-4-yl)-2-(hydroxyimino)ethyl)-5-hydroxy-2-methyl-6-oxo-1,6-dihydropyrimidine-4-carboxylic acid], for which the MIC in assay [1] is above 32 µg/mL; in assay [2], above 32 µg/mL; in assay [3] it was 8 to 32 µg/mL (≈ 21.1 to 84.3 µM); in assay [4], above 32 µg/mL; in assay [5], above 32 µg/mL; in assay [6], above 32 µg/mL. The MIC in assay [7] is above 32 µg/mL.
With `CCOC(=O)c1nc(C)n(CC(=O)c2ccc(-c3ccccc3)cc2)c(=O)c1O` [Compound 84, ethyl 1-(2-([1,1′-biphenyl]-4-yl)-2-oxoethyl)-5-hydroxy-2-methyl-6-oxo-1,6-dihydropyrimidine-4-carboxylate], the MIC in assay [1], in assay [2], in assay [3], in assay [4], in assay [5] and in assay [6] was above 32 µg/mL in each case. Besides, the MIC in assay [7] was above 32 µg/mL.
For the compound `N#CC(Cc1ccc(C#Cc2ccc(CN3CCOCC3)cc2)cc1)n1cncc(O)c1=O` (stereo not drawn) [Compound 106], the values for the MIC in assay [1], in assay [3] and in assay [4] were above 32 µg/mL, 8 to 32 µg/mL (≈ 18.2 to 72.6 µM) and below 1 µg/mL, respectively.
Turning to `CC(=O)C(Cc1ccc(C#Cc2ccc(CN3CCOCC3)cc2)cc1)n1cncc(O)c1=O` (stereo not drawn) [Compound 107], the figures for the MIC in assay [1], in assay [3] and in assay [4] were above 32 µg/mL, above 32 µg/mL and 8 to 32 µg/mL (≈ 17.5 to 69.9 µM), respectively.
Turning to `O=c1c(O)cncn1CCc1ccc(C#Cc2ccc(CN3CCOCC3)cc2)cc1` [Compound 105, 5-hydroxy-3-(4-((4-(morpholinomethyl)phenyl)ethynyl)phenethyl)pyrimidin-4(3H)-one], the MIC lay within 8 to 32 µg/mL (≈ 19.3 to 77 µM) in assay [1], 1 to 8 µg/mL (≈ 2.41 to 19.3 µM) in assay [3] and 1 to 8 µg/mL (≈ 2.41 to 19.3 µM) in assay [4].
As for `O=c1[nH]cnc(CN(CCO)c2ccc(C#Cc3ccc(CN4CCOCC4)cc3)cc2)c1O` [Compound 113], the MIC in assay [1], in assay [3] and in assay [4] was above 32 µg/mL each time.
